# Measured values from US20110190199A1, “Combination Therapy for Tuberculosis” (priority 2008, published 2011).
# Several values for one entry are separate records, joined by “and”; a condition that tells them apart may be missing. Equal entries are not always repeated. Where two headings read alike, the source gives them in different places.
# Experiments:
# [1] = system: Mycobacterium tuberculosis H37Rv; test: MIC by agar dilution on Middlebrook 7H11 agar; type: cell-based; settings: 672 h, 7H11 agar + 10% OADC, 28 days at 37°C, lowest concentration to inhibit at least 99% of bacterial growth
# [2] = system: Mycobacterium tuberculosis H37Rv; type: in vivo, mice
# [3] = Single-dose and steady-state serum pharmacokinetics in the murine model; type: in vivo, mice
# Procedure: To determine the single-dose and steady-state pharmacokinetic profiles of the compound of formula (I) and LZD in the murine model, a sub-study was nested in the above dose-ranging study using mice treated with the compound of formula (I) at 100 mg/kg once-daily or LZD at 130 mg/kg once- or twice-daily. Three mice per group were sacrificed at 0.5, 1, 2, 4, 8 and 24 hours after the first dose of treatment (D1) and at the aforementioned time points with the addition of a 9 hour time point (i.e., 1 hour after the second daily dose) on Day 24 (D24) of treatment. Mice were anesthetized with chloroform and exsanguinated by cardiac puncture. Whole blood was collected on ice and then centrifuged to obtain serum. Acetonitrile was added to the samples before storage in gasketed screwcap tubes at −20° C. D24 samples were collected and processed in the same manner and stored at −20° C. before being sent together with D1 samples to Pfizer (Groton, Conn.) for determination of drug concentrations. The supernatant was injected (10 μL injection volume) onto the LC (Shimadzu SCL-10A, Kyoto, Japan)-MS/MS (Sciex API 3000, Applied Biosystems Group, Foster City, Calif.) using a Hypersil C18 column (5 μm, 50×2.1 mm, Thermo Electron Corp, Waltham, Mass.) and a step gradient consisting of a mobile phase of A: water with 0.05% 5 mM ammonium formate and B: acetonitrile/water/5 mM ammonium formate (80:20:0.05%). The ionization was electrospray positive ion mode. Bioanalytical data were captured using Analyst (Version 1.4.1, Applied Biosystems Group, Foster City, Calif.). Pharmacokinetic calculations were based on mean serum concentrations and performed using the non-compartmental approach (linear trapezoidal rule for AUC calculation with the aid of Watson 7.2 Bioanalytical LIMS [Thermo Electron Corp, Waltham, Mass.)). […] Concentrations of 0 were used for kinetic calculations for all results below the lower limit of quantitation (5 ng/mL).
# [4] = system: Mycobacterium tuberculosis H37Rv; test: Example 6: in vivo activity of the combination (lung CFU after 4 and 8 weeks); set-up: species or system mice
# [5] = system: Mycobacterium tuberculosis H37Rv; test: Example 8B: eight week dose ranging study (second phase after 4 weeks RHZU25); type: in vivo, mice; set-up: Lung CFU / CFU-U only: unit not given here; settings: for effect of U monotherapy against persisting tubercle bacilli / log reduction with U monotherapy against persisting tubercle bacilli: 4 weeks after initial 4 weeks of RHZU25; for CFU-U only: lung
# Procedure: Eighty of the mice from Group 4 (in Example 8A) that had been receiving 25 mg/kg of the compound of formula I (U) along with rifampin(R), isoniazid(H), and pyrazinamide(Z) were evaluated in the second phase of the study. They were assigned to one of the groups described below in Table 6 and the study was continued for an additional 4 weeks (i.e. 8 week results).
# As described above, 5 animals served as the control and no further drugs were given. Five were given the combination of rifampin(R) and isoniazid (H), five given isoniazid (H) or rifampin(R) alone. […] Six of these groups were also dosed with rifampin (R). The rifampin and isoniazid was dosed in the same manner and in the same amount as in Example 8A.
# At the conclusion of the eight (8) week experiment, all of the animals were sacrificed and CFU lung counts were obtained.
# [6] = system: Mycobacterium tuberculosis H37Rv; test: Example 8C: additional dose ranging study (4 and 8 weeks); type: in vivo, mice; settings: lung
# Procedure: The protocol described above in Example 8A and 8B was carried out on an alternative occasion. The only substantive changes were the number of animals per group and the initial incubation period.
# Testing continued for an additional 4 weeks with 60 of the mice from Test Group 2 immediately above. The mice either received U alone, at varying doses, or the combination of U and R. The following results were obtained.
# [7] = system: M. tuberculosis H37Rv; test: Example 9: compound of formula I added to first and second line anti-tuberculosis drugs (survival, lung CFU after 4 weeks); type: in vivo, mice; settings: D0 8.36 ± 0.10
# [8] = system: Mycobacterium tuberculosis; settings: cited from earlier work
# [9] = 600-625 mg by mouth twice daily; cited from earlier work
# [10] = labelled regimen PLUS compound of formula (I) 100 mg/kg/day, INH 25, RIF 10, PZA 150, MXF 100 mg/kg, Day 0 7.37 ± 0.12
# [11] = regimen as labelled, INH 25, RIF 10, PZA 150, MXF 100, compound of formula (I) 100 mg/kg, Day 0 7.37 ± 0.12
# [12] = Mycobacterium tuberculosis, literature
compound,measurement,setting,value
"CC(=O)NC[C@H]1CN(c2ccc(N3CCSCC3)c(F)c2)C(=O)O1 [compound of formula (I), (S)—N-[[3-[3-fluoro-4-(4-thiomorpholinyl)phenyl]-2-oxo-5-oxazolidinyl]methyl]acetamide]",MIC,[1],0.25 µg/mL
same,in vivo potency relative to LZD,"[2]; 25 mg/kg as active as LZD 130 mg/kg, AUC about 3-fold lower at 100 mg/kg",12 times
same,log kill (reduction in mean lung CFU count compared to the baseline value),"[2]; 25 mg/kg, 28 days",0.78 log10
same,mean spleen weight,"[2]; 25 mg/kg, after 28 days of treatment, pre-treatment 105±11 mg, untreated 237±16 mg",113 ± 17 mg
same,log kill (reduction in mean lung CFU count compared to the baseline value),"[2]; 50 mg/kg, 28 days",2.21 log10
same,Mean log10 CFU count (± SD) on Day 28,"[2]; lung, 25 mg/kg once daily, 5 days per week by gavage, Day 0 7.49 ± 0.11",6.71 ± 0.28 log10 CFU
same,Mean log10 CFU count (± SD) on Day 28,"[2]; lung, 25 mg/kg twice daily, Day 0 7.49 ± 0.11",5.51 ± 0.14 log10 CFU
same,Mean log10 CFU count (± SD) on Day 28,"[2]; lung, 50 mg/kg once daily, Day 0 7.49 ± 0.11, 50 mg/kg",5.28
same,Mean log10 CFU count (± SD) on Day 28,"[2]; lung, 50 mg/kg once daily, Day 0 7.49 ± 0.11, listed as Compound of Formula (I), 50 mg/kg",5.28 ± 0.53 log10 CFU
same,Mean log10 CFU count (± SD) on Day 28,"[2]; lung, 50 mg/kg twice daily, Day 0 7.49 ± 0.11",4.89 ± 0.27 log10 CFU
same,Mean log10 CFU count (± SD) on Day 28,"[2]; lung, 100 mg/kg once daily, Day 0 7.49 ± 0.11",5.07 ± 0.14 log10 CFU
same,AUC0-24,"[3]; mouse, in vivo, po, 100 mg/kg",8.74 µg·h/mL
same,Cmax,"[3]; mouse, in vivo, po, 100 mg/kg",4.32 µg/mL
same,AUC(0-t),"[3]; mouse, in vivo, po, 100 mg/kg, AUC0-24",7.33 µg·h/mL
same,Cmax,"[3]; mouse, in vivo, po, 100 mg/kg, Cmax",6.07 µg/mL
same,"Lung log10 CFU counts (±SD) after treatment with the indicated regimen plus the compound of formula (I) 100 mg/kg/day, Day 28",[4]; [10],4.72 ± 0.17 log10 CFU
same,"Lung log10 CFU counts (±SD) after treatment with the indicated regimen plus the compound of formula (I) 100 mg/kg/day, Day 56",[4]; [10],2.70 ± 0.29 log10 CFU
same,reduction in lung CFU counts from baseline over the first 28 days,"[4]; monotherapy, compound of formula (I) 100, INH 25, RIF 10 mg/kg",2.65 log10
same,"Lung log10 CFU counts (±SD) after treatment with the indicated regimen, Day 28",[4]; [11],4.72 log10 CFU
same,"Lung log10 CFU counts (±SD) after treatment with the indicated regimen, Day 56",[4]; [11],2.70 log10 CFU
same,effect of U monotherapy against persisting tubercle bacilli,[5]; 12.5 mg/kg,growth-inhibitory effect
same,effect of U monotherapy against persisting tubercle bacilli,[5]; 25 mg/kg,bacteriostatic effect
same,log reduction with U monotherapy against persisting tubercle bacilli,[5]; 50 mg/kg,> 0.5 log
same,log reduction with U monotherapy against persisting tubercle bacilli,[5]; 100 mg/kg,> 1 log
same,log reduction with U monotherapy against persisting tubercle bacilli,[5]; 160 mg/kg,~2 log
same,CFU-U only,[5]; 8 weeks: 4 weeks RHZU25 then 4 weeks U 12.5 mg/kg,4.99 ± 0.19
same,CFU-U only,[5]; 8 weeks: 4 weeks RHZU25 then 4 weeks U 25 mg/kg,4.26 ± 0.24
same,CFU-U only,[5]; 8 weeks: 4 weeks RHZU25 then 4 weeks U 50 mg/kg,3.56 ± 0.15
same,CFU-U only,[5]; 8 weeks: 4 weeks RHZU25 then 4 weeks U 50 mg/kg thrice weekly (3/7),4.21 ± 0.26
same,CFU-U only,[5]; 8 weeks: 4 weeks RHZU25 then 4 weeks U 100 mg/kg,2.88 ± 0.34
same,CFU-U only,[5]; 8 weeks: 4 weeks RHZU25 then 4 weeks U 160 mg/kg,2.42 ± 0.31
same,CFU Count 8 weeks,[6]; 4 weeks RHZU100 then 4 weeks with U 6.25 mg/kg (alone or with R),4.93 ± 0.32
same,CFU Count 8 weeks,[6]; 4 weeks RHZU100 then 4 weeks with U 12.5 mg/kg (alone or with R),5.30 ± 0.08
same,CFU Count 8 weeks,[6]; 4 weeks RHZU100 then 4 weeks with U 25 mg/kg (alone or with R),5.27 ± 0.20
same,CFU Count 8 weeks,[6]; 4 weeks RHZU100 then 4 weeks with U 50 mg/kg (alone or with R),4.59 ± 0.28
same,CFU Count 8 weeks,[6]; 4 weeks RHZU100 then 4 weeks with U 100 mg/kg (alone or with R),3.86 ± 0.53
same,CFU Count 8 weeks,[6]; 4 weeks RHZU100 then 4 weeks with U 160 mg/kg (alone or with R),2.90 ± 0.32
same,Mean lung log10 CFU count (±) S.D. after 4 weeks of treatment with: Regimen + U 25 mg/kg,[7]; labelled drug PLUS U 25 mg/kg,7.17 ± 0.23 log10 CFU
same,Mean lung log10 CFU count (±) S.D. after 4 weeks of treatment with: Regimen + U 100 mg/kg,"[7]; labelled drug PLUS U 100 mg/kg, lower limit of detection 3.40",5.40 ± 0.10 log10 CFU
same,MIC90 against M. tuberculosis,[8]; stated in the pharmacokinetics section (Barbachyn et al.),0.25 µg/mL
"CC(=O)NC[C@H]1CN(c2ccc(N3CCOCC3)c(F)c2)C(=O)O1 [LZD, linezolid]",MIC,[1],0.25 µg/mL
same,log kill (reduction in mean lung CFU count compared to the baseline value),"[2]; mouse, in vivo",1.46 log10
same,mean spleen weight,"[2]; mouse, in vivo",200 ± 47 mg and 102 ± 5 mg and 190 ± 52 mg
same,Mean log10 CFU count (± SD) on Day 28,"[2]; mouse, in vivo, 25 mg/kg",7.55 ± 0.24 log10 CFU
same,Mean log10 CFU count (± SD) on Day 28,"[2]; mouse, in vivo, 50 mg/kg",7.33 ± 0.11 log10 CFU
same,Mean log10 CFU count (± SD) on Day 28,"[2]; mouse, in vivo, 100 mg/kg",6.75 ± 0.14 log10 CFU
same,Mean log10 CFU count (± SD) on Day 28,"[2]; mouse, in vivo, 260 mg/kg",6.03 ± 0.12 log10 CFU
same,Cmax higher than that obtained in humans,"[3]; 100 mg/kg dose in the mouse, based on linear kinetics",approximately 3 times
same,steady state AUC higher than anticipated steady state AUC in humans,[3]; mouse 130 mg/kg daily vs humans 600-625 mg twice daily,approximately 50%
same,AUC(0-t),"[3]; mouse, serum, po, 130 mg/kg, serum, Day 1, LZD 130 mg/kg daily oral, read-out: AUC0-24",164 µg·h/mL
same,Cmax,"[3]; mouse, serum, po, 130 mg/kg, serum, Day 1, LZD 130 mg/kg daily oral, read-out: Cmax",64.9 µg/mL
same,AUC(0-t),"[3]; mouse, serum, po, 130 mg/kg, serum, Day 24, LZD 130 mg/kg daily oral, read-out: AUC0-24 (steady state AUC)",379 µg·h/mL
same,Cmax,"[3]; mouse, serum, po, 130 mg/kg, serum, Day 24, LZD 130 mg/kg daily oral, read-out: Cmax",58.4 µg/mL
same,steady state AUC observed in humans,[9],215 to 294 µg·h/mL
same,MIC50,[8]; [12],0.5 µg/mL
same,MIC90,[8]; [12],1 µg/mL
same,MIC range,[8]; [12],0.125 to 1 µg/mL
